{"source": "PubChem BioAssay AID504861", "about": "(Broad Institute, 2011)", "note": "Activity calls are given as the source filed them.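 How the source made its calls: active means compounds lowering cell viability signal with fitted half-maximal concentration at most ten times their highest tested concentration; inconclusive means flat fit with 30 to 70% signal loss, or poor fit; inactive means the rest.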", "data": [{"system": "HEK293T viability, CellTiter-Glo ATP luminescence, 48 h", "test": "cytotoxicity in HEK293T cells – cell-based, CellTiter-Glo luminescence, cherry-picks, cytotoxicity control for LMP1 NF-kB inhibitor project, dose response (AID 504861)", "values": [{"smiles": "CS(=O)(=O)c1ncc(Cl)c(C(=O)Nc2ccc(OC(F)F)cc2)n1", "AC50": "3.2 µM"}, {"smiles": "O=C1c2ccccc2C(Nc2ccc(Cl)cc2)N1CCN1CCOCC1", "note": "(stereo not drawn)", "AC50": "> 26 µM (inactive)"}, {"smiles": "Brc1ccc(-c2nc(-c3ccccn3)no2)o1", "AC50": "> 26 µM (inactive)"}, {"smiles": "CCN1CCN(Cc2ccc(NC(=O)c3ccc(C)c(NC(=O)c4nccnc4N)c3)cc2C(F)(F)F)CC1", "AC50": "23.6 µM"}, {"smiles": "O=[N+]([O-])c1c(Nc2cccc(O)c2)cc(Cl)c2nonc12", "AC50": "4.39 µM"}, {"smiles": "CCC(C)Nc1nc(-c2ccccn2)nc2ccccc12", "note": "(stereo not drawn)", "AC50": "4.04 µM"}, {"smiles": "COc1ccc(-c2ccc(NC(=O)c3ccco3)cc2)nn1", "AC50": "7.75 µM"}, {"smiles": "COc1ccc(O)c(/C=N/NC(=O)c2ccc(OCc3cccc(Br)c3)cc2)c1", "AC50": "4.45 µM"}, {"smiles": "O=C(Nc1ccc2c(c1)OCCO2)c1ccccn1", "AC50": "21.2 µM"}, {"smiles": "CCCCC(=O)NC(c1ccc(OC)cc1)c1ccc2cccnc2c1O", "note": "(stereo not drawn)", "AC50": "16.2 µM"}, {"smiles": "CC(=NNC(=S)N1CCN(c2ccccn2)CC1)c1nccs1", "AC50": "3.52 µM"}, {"smiles": "CCN1CCN(Cc2ccc(NC(=O)c3ccc(C)c(NC(=O)c4cccc5[nH]ccc45)c3)cc2C(F)(F)F)CC1", "AC50": "22.3 µM"}, {"smiles": "CCN(CC)c1ccc(/C=N/NC(=O)c2cnccn2)c(O)c1", "AC50": "3.21 µM"}, {"smiles": "c1ccc(C2=NNC(=NC3CC3)SC2)cc1", "AC50": "12.1 µM"}, {"smiles": "Cc1csc(SCC(=O)c2cc(C)n(Cc3cccs3)c2C)n1", "AC50": "> 26 µM (inactive)"}, {"smiles": "Cc1cccc(-n2ncc(Cl)c(Cl)c2=O)c1", "AC50": "5.2 µM"}, {"smiles": "CCc1ccc(Nc2n[n+](-c3ccccc3)c(-c3c(Cl)cccc3Cl)s2)cc1", "AC50": "11.2 µM"}, {"smiles": "CCC(=O)NC(c1cc(Cl)c2cccnc2c1O)C1CC1", "note": "(stereo not drawn)", "AC50": "9.86 µM"}, {"smiles": "Cc1cc(Sc2nnc(N)s2)c2ccccc2n1", "AC50": "3.34 µM"}, {"smiles": "CCOc1ccc(C(=O)Nc2cc(C)ccn2)cc1", "AC50": "13.8 µM"}, {"smiles": "COc1cccc(N=Nc2ccc(O)c3ncccc23)c1", "AC50": "2.88 µM"}, {"smiles": "CC(=O)NC(c1cccc([N+](=O)[O-])c1)c1ccc2cccnc2c1O", "note": "(stereo not drawn)", "AC50": "3.66 µM"}, {"smiles": "Cc1nc(N)nc(N)c1/C=C/C(C)(C)c1ccc(Cl)cc1", "AC50": "< 0.011 µM"}, {"smiles": "C/C(=N\\NC(=O)c1cccc(Br)c1)c1ccccn1", "AC50": "3.59 µM"}, {"smiles": "COc1ccc(O)c(/C=N/Nc2nc(Nc3ccccc3)nc(-n3nc(C)cc3C)n2)c1", "AC50": "7.55 µM"}, {"smiles": "CCNC(=S)NNC(=O)c1cc(-c2ccc(OCC)cc2)nc2ccccc12", "AC50": "23 µM"}, {"smiles": "COc1ccccc1-c1nc(-c2ccccn2)no1", "AC50": "5.63 µM"}, {"smiles": "COc1ccccc1NC(=O)c1c(Nc2ccccc2C)sc(C(=O)Nc2cccc(Cl)c2)c1N", "AC50": "4.52 µM"}, {"smiles": "Cc1ccc(C(=O)/C=C/C(=O)c2ccc(C)cc2)cc1", "AC50": "7.08 µM"}, {"smiles": "C=CCn1c(O)c(N=NC(=S)Nc2cccc(C)c2)c2ccccc21", "AC50": "> 26 µM (inactive)"}, {"smiles": "COc1cc2c(cc1OC)C(c1ccc(-c3ccccc3Cl)o1)=NCC2", "AC50": "21 µM"}, {"smiles": "CCc1nc(SCC(=O)c2ccc3c(c2)OCCO3)c2ccccc2n1", "AC50": "> 26 µM (inactive)"}, {"smiles": "Oc1ccc2ccccc2c1N=Nc1ccccn1", "AC50": "3.42 µM"}, {"smiles": "CC(=NNC(=S)Nc1ccccc1)c1ccccn1", "AC50": "1.56 µM"}, {"smiles": "CCc1cc2c(N3CCN(c4ccccc4)CC3)ncnc2s1", "AC50": "26.4 µM"}, {"smiles": "CC(=O)NC(c1ccc(Cl)cc1Cl)c1ccc2cccnc2c1O", "note": "(stereo not drawn)", "AC50": "1.63 µM"}, {"smiles": "CC(=O)NC(c1ccc2ccccc2c1)c1ccc2cccnc2c1O", "note": "(stereo not drawn)", "AC50": "1.32 µM"}, {"smiles": "O=C(N/N=C/c1c(O)ccc2ccccc12)c1cccnc1", "AC50": "8.72 µM"}, {"smiles": "CC(=O)NC(c1ccc(Cl)cc1)c1ccc2cccnc2c1O", "note": "(stereo not drawn)", "AC50": "1.16 µM"}, {"smiles": "CC(C)C(=O)NC(c1cccc([N+](=O)[O-])c1)c1ccc2cccnc2c1O", "note": "(stereo not drawn)", "AC50": "4.33 µM"}, {"smiles": "Cc1ccc(C(=O)Nc2ccc3c(c2)OCCO3)c(Cl)c1", "AC50": "> 26 µM (inactive)"}, {"smiles": "COc1cnc(-c2ccccn2)nc1Sc1ccccc1Cl", "AC50": "18.8 µM"}, {"smiles": "CCC(NC(=O)Nc1nnc(C(F)(F)F)s1)(C(F)(F)F)C(F)(F)F", "AC50": "9.8 µM"}, {"smiles": "O=C(N/N=C/c1sc2ccccc2c1O)c1cccc2ccccc12", "AC50": "4.96 µM"}, {"smiles": "C#CCN(C[C@@H]1[C@@H](OC(=O)NCCCCCC)[C@@H](OC(=O)NCCCCCC)Cn2c(=O)ccc(=O)n21)S(=O)(=O)c1ccc(C)cc1", "AC50": "4.1 µM"}, {"smiles": "S=C(NN=Cc1ccccn1)Nc1ccccn1", "AC50": "23 µM"}, {"smiles": "CC(=NNc1nc2ccccc2o1)c1cc2ccccc2cn1", "AC50": "0.252 µM"}, {"smiles": "Cc1ccc(CSc2nc3ccncc3[nH]2)cc1", "AC50": "20.9 µM"}, {"smiles": "CCCCC(=O)NC(c1cccc([N+](=O)[O-])c1)c1ccc2cccnc2c1O", "note": "(stereo not drawn)", "AC50": "3.93 µM"}, {"smiles": "CCCCCN=Cc1c(C)[nH]n(-c2nc3ccccc3s2)c1=O", "AC50": "1.33 µM"}, {"smiles": "S=C(NCCCN1CCOCC1)N1CCN(c2nc(-c3ccc(Cl)cc3)cs2)CC1", "AC50": "> 26 µM (inactive)"}, {"smiles": "CC(=NNc1nc2ccccc2o1)c1ncccn1", "AC50": "16 µM"}, {"smiles": "CCCC(=O)NC(c1ccccc1Cl)c1ccc2cccnc2c1O", "note": "(stereo not drawn)", "AC50": "4.36 µM"}, {"smiles": "c1ccc(CN2CCN(c3ncnc4c3[nH]c3ccccc34)CC2)cc1", "AC50": "11.8 µM"}, {"smiles": "c1ccc(CCNc2nc(-c3ccccn3)nc3ccccc23)cc1", "AC50": "1.13 µM"}, {"smiles": "COc1ccc(C(=O)C(CN2CCOCC2)c2ccccc2)cc1F", "note": "(stereo not drawn)", "AC50": "8.32 µM"}, {"smiles": "O=C(N/N=C/c1ccc(O)cc1O)c1ccc(CN2C(=O)c3cccc4cccc2c34)cc1", "AC50": "9.41 µM"}, {"smiles": "CCN1C(=O)[C@@H]2[C@@H](c3ccc(-c4ccc(Cl)c(Cl)c4)cc3)N3CCC[C@@]3(C(=O)OC)[C@@H]2C1=O", "AC50": "> 26 µM (inactive)"}]}]}
